The values that follow come from patent US7820829B2, “Bisbenzisoselenazolonyl derivatives having antineoplastic, anti-inflammatory and antithrombotic activities as well as their use” (Peking University, priority 2001, dated 2010).

For series [1], the system named is HL-60. Nature of the series: E003 in combination with other antineoplastic agents on growth of cancer cell. As to conditions: HL-60, 24 h. It is filed as cell-based, human.
Series [2] has as its system xylene-induced ear oedema. Put plainly: Xylene-induced ear oedema in mice. As to conditions: oral; for Inhibiting rate (%) (to aspirin): relative to aspirin 200 mg/kg; for Inhibiting rate (%) (to indomethacin): relative to indomethacin 22 mg/kg. It is filed as in vivo. Here is the method:
The anti-inflammatory effects of the test compounds E001, E002 and E 003 were evaluated in xylene-induced ear oedema in mice. The mice were randomized into a no-treatment control group, three reference groups and three treatment groups. There are 10 animals in each group. The test compounds, saline and reference drugs (indomethacin, Aspirin and Ebselen) were orally administered respectively. Ear oedema was induced by topical administration of xylene ([…] per ear) to the inner surface of the right ear after 1 hour of the administration. After 2 hours, the mice were killed. The change in the ear's weight with diameter of 8 mm was measured with a precision micrometer. The inhibiting rate of each compound to the xylene-induced ear oedema was calculated in accordance with the ear weight and the results were listed in Table 7.
The procedure described in Example 8 was repeated. And the results of the experiment are shown by the following table: […]

Series [3] has as its system thrombosis. Put plainly: Electrically induced thrombosis in rat neck artery (OT value). It is filed as in vivo. The note with it: male SD rats, oral 30 mg/kg, 1 hour after administration; electricity 3 mA, 180 s. Here is the method:
Male SD rats (300-400 g) were randomized into a no-treatment control group (0.25% CMC), an ASA reference group (0.25% CMC, a few Tween-80) and three treatment groups (the compounds E001, E002 and E003). There are 5 animals in each group. The inventive compounds and reference drugs were orally administered respectively in amount of 30 mg/kg. The animals were anesthetized with urethane after 1 hour of the administration. The neck artery was separated surgically and OT value was measured (the stimulating conditions: electricity, 3 mA; time, 180 s).

In series [4] the test system is Lewis lung cancer. Nature of the series: Lewis lung cancer transplanted in C57 mice. It is filed as in vivo, C57 mouse. The note with it: 2 mg/kg. Here is the method:
Lewis lung cancer tissue was resuscitated and subcultured by standard procedure. A piece of Lewis lung cancer was transplanted into the subcutaneous space on the back of each C 57 mouse for inoculation and growth. The Lewis lung cancer cells were dispersed in saline to form a cell suspension of 10^6/ml. 0.2-0.3 ml of the suspension were inoculated into each C57 mouse Mice were randomized into three groups, 10 for each group. In the treatment group, the mice were injected i.p. with […] in amount of 50 mg/kg; in reference group, DDp, 2 mg/kg; and in the negative control group (solvent group), 0.5% CMC-Na. The total volume for every group is the same. […] was administered by i.p. from the second day of transplantation for 3 days until the mice were sacrificed. The C57 mice were disinfected with 70% alcohol. The Lewis lung cancer tissue was removed, photographed and weighted. Then, the subcutaneous tumors were fixed by formaldehyde for further analysis.

Series [5] concerns mice. The note with it: cited from earlier work.

What is called inhibition is the relative decrease from the control value, in per cent. Regarding `COc1cccc2c1C(=O)c1c(O)c3c(c(O)c1C2=O)C[C@@](O)(C(=O)CO)C[C@@H]3O[C@H]1C[C@H](N)[C@H](O)[C@H](C)O1` [Adriamycin], the inhibition at 0.1 µg/mL in series [1] (Homo sapiens, Adriamycin alone 0.1 mg/L, read-out: Inhibition rate) was -7 ± 0.7%.

`CC(=O)Oc1ccccc1C(=O)O` [Aspirin]: the Ear oedema % in series [2] (Example 8, mice, 200 mg/kg) is 10.63%; in series [2] (Example 11, mice, 200 mg/kg) it was 10.27%. In series [3], the “Average OT value” was found to be 588.2 s.

Regarding `CC(=O)OC[C@H]1OC(OC(C)=O)[C@H](n2[se]c3ccccc3c2=O)[C@@H](OC(C)=O)[C@@H]1OC(C)=O` (stereo partly drawn) [Compound E001, 2-(1,3,4,6-tetra-O-acetyl-2-deoxy-D-glucopyranosyl)-(1,2)-benzisoselenazol-3(2H)-one], in series [2] (Example 8, mice, 50 mg/kg), the Ear oedema % amounted to 4.81%, the “Inhibiting rate (%) (to aspirin)” value is 54.75 (to aspirin) % and the “Inhibiting rate (%) (to indomethacin)” value is reported as 75.81 (to indomethacin) %. Moreover, the “Average OT value” in series [3] is 561.2 s.

For the compound `N.N.[Cl][Pt][Cl]` [DDP, Cisplatin], in series [4], the “tumor volume, average” value worked out at 473 mm^3. The Inhibition rate came to 0.067 ± 0.014 in series [1] (Cisplatin alone 0.5 μmol/L) and 0.12 ± 0.032 in series [1] (Cisplatin alone 5 μmol/L).

Usually LD50 stands for the dose expected to kill half of the subjects tested. `O=c1c2ccccc2[se]n1-c1ccccc1` [Ebselen, 2-phenyl-(1,2)-benzisoselenazol-3(2H)-on]: in series [2] (Example 8, mice, 50 mg/kg), the Ear oedema % was 6.22%, the “Inhibiting rate (%) (to aspirin)” value is 41.48 (to aspirin) % and the “Inhibiting rate (%) (to indomethacin)” value is recorded as 68.72 (to indomethacin) %. Further, the LD50 in series [5] is greater than 6810 mg/kg.

As for `COc1ccc2c(c1)c(CC(=O)O)c(C)n2C(=O)c1ccc(Cl)cc1` [Indomethacin], the Ear oedema % in series [2] (Example 8, mice, 22 mg/kg) is listed as 19.89%; in series [2] (Example 11, mice, 22 mg/kg), 19.12%.

On to `CC(=O)O[C@H]1C(=O)[C@@]2(C)[C@H]([C@H](OC(=O)c3ccccc3)[C@]3(O)C[C@H](OC(=O)[C@H](O)[C@@H](NC(=O)c4ccccc4)c4ccccc4)C(C)=C1C3(C)C)[C@]1(OC(C)=O)CO[C@@H]1C[C@@H]2O` [Taxol], for which, in series [1] (Homo sapiens, Taxol alone 0.001 mg/L, read-out: Inhibition rate), the inhibition at 0.001 µg/mL amounted to 2 ± 1%. Further, the inhibition at 0.01 µg/mL in series [1] (Homo sapiens, Taxol alone 0.01 mg/L, read-out: Inhibition rate) turned out to be 27 ± 7.9%.
